# Results reported in US6642392B1 (priority 1997, dated 2003).
# Read-outs that look alike come from different tables or passages of the source.
# Experiments:
# Format in all cases: in vivo
# [1] = system: Eiysiphe graminis f. sp. tritici; assay: Test A: wheat powdery mildew, preventive spray on wheat seedlings; settings: for Test A disease control rating: wheat powdery mildew; for Test A disease control rating (100 = 100% disease control, 0 = no disease control): wheat seedlings sprayed to run-off, inoculated the following day, rating relative to controls, unmarked compounds (standard test rate)
# Outline: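 Compounds (3% acetone, 250 ppm Trem 014) sprayed to run-off on wheat seedlings, inoculated next day with spore dust. Incubated 7 days at 20° C before disease rating, 0–100% control relative to untreated controls.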
# Botrytis cinerea = assay: Test E: gray mold, preventive spray on cucumber seedlings; settings: for Test E disease control rating: gray mold on cucumber; for Test E disease control rating (100 = 100% disease control, 0 = no disease control): cucumber seedlings sprayed to run-off, inoculated the following day, rating relative to controls, unmarked compounds (standard test rate)
# Outline: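 Compounds in 3% acetone were suspended with 250 ppm Trem 014 surfactant and sprayed to run-off on cucumber seedlings. B. cinerea spores were inoculated next day, then 48 h saturated humidity at 20° C and 5 days at 20° C. Disease control rated 0–100% versus controls.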
# Puccinia recondita = assay: Test B: wheat leaf rust, preventive spray on wheat seedlings; settings: for Test B disease control rating: wheat leaf rust; for Test B disease control rating (100 = 100% disease control, 0 = no disease control): wheat seedlings sprayed to run-off, inoculated the following day, rating relative to controls, unmarked compounds (standard test rate)
# Outline: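 Wheat seedlings were sprayed to run-off with compound (3% acetone, 250 ppm Trem 014), then inoculated with P. recondita spores the next day. They were held 24 h saturated at 20 °C, then 6 days at 20 °C. Ratings are 0–100% disease control versus controls.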
# Pyricularia oryzae = settings: for Test C disease control rating: rice blast; for Test C disease control rating (100 = 100% disease control, 0 = no disease control): rice seedlings sprayed to run-off, inoculated the following day, rating relative to controls, unmarked compounds (standard test rate)
# Phytophthora infestans = settings: for Test D disease control rating: tomato late blight; for Test D disease control rating (100 = 100% disease control, 0 = no disease control): tomato seedlings sprayed to run-off, inoculated the following day, rating relative to controls, unmarked compounds (standard test rate)
# [2] = 100 = 100% disease control, 0 = no control relative to controls, unmarked entries (standard test concentration)
# [3] = 100 = 100% disease control, 0 = no control, unmarked entries (standard test concentration)
SMILES,"Test A disease control rating [1, 2]",Test E disease control rating (Botrytis cinerea; [3]),Test B disease control rating (Puccinia recondita; [3]),Test C disease control rating (Pyricularia oryzae; [3]),Test D disease control rating (Phytophthora infestans; [3]),other results
CCC1(C(=O)NCC=Cc2ccccc2CC#N)C(C)C1(Cl)Cl (stereo not drawn) [compound 161],–,–,–,–,–,Test A disease control rating ([1]; tested at 40 ppm): 0%; Test E disease control rating (Botrytis cinerea; tested at 40 ppm): 0%; Test B disease control rating (Puccinia recondita; tested at 40 ppm): 0%; Test C disease control rating (Pyricularia oryzae; tested at 40 ppm): 0%; Test D disease control rating (Phytophthora infestans; tested at 40 ppm): 0%
"C[C@H](COc1cc(F)cc(F)c1F)NC(=O)C(C#N)C(C)(C)C (single isomer, unassigned) [168a]",76%,58%,0%,74%,0%,–
CCC1(C(=O)NC(C)COc2cc(Cl)ccc2Cl)C(C)C1(Cl)Cl (stereo not drawn) [compound 113],–,–,–,–,–,Test A disease control rating ([1]; tested at 40 ppm): 0%; Test E disease control rating (Botrytis cinerea; tested at 40 ppm): 0%; Test B disease control rating (Puccinia recondita; tested at 40 ppm): 0%; Test C disease control rating (Pyricularia oryzae; tested at 40 ppm): 97%; Test D disease control rating (Phytophthora infestans; tested at 40 ppm): 19%
"C[C@H](COc1ccc(Br)cc1)NC(=O)C(C#N)C(C)(C)C (single isomer, unassigned) [10c]",0%,0%,86%,53%,35%,–
"C[C@H](COc1cc(F)cc(F)c1F)NC(=O)C(C#N)C(C)(C)C (single isomer, unassigned) [168b]",95%,86%,0%,94%,45%,–
CCc1ccccc1OCC(C)NC(=O)C(C#N)C(C)(C)C (mixture of isomers) [20a],63%,0%,0%,97%,70%,–
CCC1(C(=O)NC(C)C=Cc2ccccc2)C(C)C1(Cl)Cl (mixture of isomers) [compound 263],–,–,–,–,–,"Test A disease control rating (100 = 100% disease control, 0 = no disease control) [1]: 86%; Test E disease control rating (100 = 100% disease control, 0 = no disease control) (Botrytis cinerea): 0%; Test B disease control rating (100 = 100% disease control, 0 = no disease control) (Puccinia recondita): 0%; Test C disease control rating (100 = 100% disease control, 0 = no disease control) (Pyricularia oryzae): 86%; Test D disease control rating (100 = 100% disease control, 0 = no disease control) (Phytophthora infestans): 33%"
"C[C@H](COc1cc(Cl)c(Cl)cc1Cl)NC(=O)C(C#N)C(C)(C)C (single isomer, unassigned) [174a]",0%,0%,0%,31%,54%,–
"Cc1ccc(OC[C@@H](C)NC(=O)C(C#N)C(C)(C)C)c(Cl)c1 (single isomer, unassigned) [14b]",61%,0%,0%,86%,23%,–
CCC1(C(=O)NC(C)COc2ccc(F)cc2Br)C(C)C1(Cl)Cl (stereo not drawn) [compound 124],–,–,–,–,–,Test A disease control rating ([1]; tested at 40 ppm): 83%; Test E disease control rating (Botrytis cinerea; tested at 40 ppm): 0%; Test B disease control rating (Puccinia recondita; tested at 40 ppm): 0%; Test C disease control rating (Pyricularia oryzae; tested at 40 ppm): 0%; Test D disease control rating (Phytophthora infestans; tested at 40 ppm): 0%
CC(COc1cc(F)ccc1Cl)NC(=O)C(C#N)C(C)(C)C (mixture of isomers) [191c],86%,0%,0%,100%,23%,–
CCC1(C(=O)NC(C)COc2ccc(F)cc2)C(C)C1(Cl)Cl (mixture of isomers) [80b],–,–,–,–,–,Test A disease control rating ([1]; tested at 40 ppm): 83%; Test E disease control rating (Botrytis cinerea; tested at 40 ppm): 0%; Test B disease control rating (Puccinia recondita; tested at 40 ppm): 0%; Test C disease control rating (Pyricularia oryzae; tested at 40 ppm): 97%; Test D disease control rating (Phytophthora infestans; tested at 40 ppm): 0%
"C[C@H](COc1cccc(Br)c1)NC(=O)C(C#N)C(C)(C)C (single isomer, unassigned) [9b]",62%,0%,68%,99%,28%,–
CC(COc1c(C#N)cccc1C(F)(F)F)NC(=O)C(C#N)C(C)C(C)(C)C (mixture of isomers) [compound 68],62%,0%,27%,86%,82%,–
"C[C@H](COc1ccccc1F)NC(=O)C(C#N)C(C)(C)C (single isomer, unassigned) [2c]",86%,0%,0%,100%,24%,–
CCC1(C(=O)NC(C)COc2ccccc2C(F)(F)F)C(C)C1(Cl)Cl (mixture of isomers) [94b],–,–,–,–,–,Test A disease control rating ([1]; tested at 40 ppm): 71%; Test E disease control rating (Botrytis cinerea; tested at 40 ppm): 0%; Test B disease control rating (Puccinia recondita; tested at 40 ppm): 0%; Test C disease control rating (Pyricularia oryzae; tested at 40 ppm): 0%; Test D disease control rating (Phytophthora infestans; tested at 40 ppm): 0%
CCC1(C(=O)NC(C)COc2ccccc2Br)C(C)C1(Cl)Cl (mixture of isomers) [84b],–,–,–,–,–,Test A disease control rating ([1]; tested at 40 ppm): 57%; Test E disease control rating (Botrytis cinerea; tested at 40 ppm): 0%; Test B disease control rating (Puccinia recondita; tested at 40 ppm): 28%; Test C disease control rating (Pyricularia oryzae; tested at 40 ppm): 73%; Test D disease control rating (Phytophthora infestans; tested at 40 ppm): 75%
"Cc1ccc(OC[C@@H](C)NC(=O)C(C#N)C(C)(C)C)c(Cl)c1 (single isomer, unassigned) [14a]",0%,58%,0%,94%,45%,–
CC(COc1ccc(F)cc1C#N)NC(=O)C(C#N)C(C)(C)C (mixture of isomers) [compound 40],21%,0%,0%,86%,0%,–
CCCc1ccccc1OCC(C)NC(=O)C1(CC)C(C)C1(Cl)Cl (mixture of isomers) [98a],0%,0%,0%,53%,24%,–
CCC1(C(=O)NCC=Cc2ccccc2F)C(C)C1(Cl)Cl (stereo not drawn) [compound 157],–,–,–,–,–,Test A disease control rating ([1]; tested at 40 ppm): 0%; Test E disease control rating (Botrytis cinerea; tested at 40 ppm): 0%; Test B disease control rating (Puccinia recondita; tested at 40 ppm): 0%; Test C disease control rating (Pyricularia oryzae; tested at 40 ppm): 97%; Test D disease control rating (Phytophthora infestans; tested at 40 ppm): 0%
"C[C@H](COc1cccc(F)c1)NC(=O)C(C#N)C(C)(C)C (single isomer, unassigned) [3d]",92%,0%,0%,100%,99%,–
CCC1(C(=O)NCC=Cc2cccc(Cl)c2)C(C)C1(Cl)Cl (stereo not drawn) [compound 159],0%,47%,0%,0%,0%,–
"CC(C=Cc1cc(F)ccc1F)NC(=O)C(C#N)C(C)(C)C (single isomer, unassigned) [229b]",–,–,–,–,–,"Test A disease control rating (100 = 100% disease control, 0 = no disease control) [1]: 0%; Test E disease control rating (100 = 100% disease control, 0 = no disease control) (Botrytis cinerea): 95%; Test B disease control rating (100 = 100% disease control, 0 = no disease control) (Puccinia recondita): 0%; Test C disease control rating (100 = 100% disease control, 0 = no disease control) (Pyricularia oryzae): 100%; Test D disease control rating (100 = 100% disease control, 0 = no disease control) (Phytophthora infestans): 25%"
